pIC50: −log10 of the molar value.
Test system: 832693-133-R-J1-PDC multi-cell spheroids, viability
Experiment: Anticancer human tumor 832693-133-R-J1-PDC patient-derived head and neck squamous carcinoma cell line growth inhibition [IpAb]
Details: for pIC50: curve of first compound; for viability, T/C: stronger effect = lower value
In short: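 Combinations with ipatasertib or abemaciclib were tested on tumour spheroids holding HUVEC (25%) and MSC (15%) alongside 60% malignant cells. Top concentration was at or near clinical Cmax (10 microM if undefined), descending in half-log steps.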

[1] = second compound 0.1 µM, first compound 0.0316 µM
[2] = second compound 0.1 µM, first compound 0.1 µM
[3] = second compound 0.1 µM, first compound 0.316 µM
[4] = second compound 0.1 µM, first compound 1 µM
[5] = second compound 0.1 µM, first compound 3.16 µM
[6] = second compound 0.1 µM, first compound 10 µM
[7] = second compound 0.316 µM, first compound 0.0316 µM
[8] = second compound 0.316 µM, first compound 0.1 µM
[9] = second compound 0.316 µM, first compound 0.316 µM
[10] = second compound 0.316 µM, first compound 1 µM
[11] = second compound 0.316 µM, first compound 3.16 µM
[12] = second compound 0.316 µM, first compound 10 µM
[13] = second compound 1 µM, first compound 0.0316 µM
[14] = second compound 1 µM, first compound 0.1 µM
[15] = second compound 1 µM, first compound 0.316 µM
[16] = second compound 1 µM, first compound 1 µM
[17] = second compound 1 µM, first compound 3.16 µM
[18] = second compound 1 µM, first compound 10 µM
[19] = second compound 3.16 µM, first compound 0.0316 µM
[20] = second compound 3.16 µM, first compound 0.1 µM
[21] = second compound 3.16 µM, first compound 0.316 µM
[22] = second compound 3.16 µM, first compound 1 µM
[23] = second compound 3.16 µM, first compound 3.16 µM
[24] = second compound 3.16 µM, first compound 10 µM
[25] = second compound 10 µM, first compound 0.0316 µM
[26] = second compound 10 µM, first compound 0.1 µM
[27] = second compound 10 µM, first compound 0.316 µM
[28] = second compound 10 µM, first compound 1 µM
[29] = second compound 10 µM, first compound 3.16 µM
[30] = second compound 10 µM, first compound 10 µM
[31] = second compound 0.1 µM, first compound 0.00949 µM
[32] = second compound 0.1 µM, first compound 0.03 µM
[33] = second compound 0.1 µM, first compound 0.0949 µM
[34] = second compound 0.1 µM, first compound 0.3 µM
[35] = second compound 0.316 µM, first compound 0.00949 µM
[36] = second compound 0.316 µM, first compound 0.03 µM
[37] = second compound 0.316 µM, first compound 0.0949 µM
[38] = second compound 0.316 µM, first compound 0.3 µM
[39] = second compound 1 µM, first compound 0.00949 µM
[40] = second compound 1 µM, first compound 0.03 µM
[41] = second compound 1 µM, first compound 0.0949 µM
[42] = second compound 1 µM, first compound 0.3 µM
[43] = second compound 3.16 µM, first compound 0.00949 µM
[44] = second compound 3.16 µM, first compound 0.03 µM
[45] = second compound 3.16 µM, first compound 0.0949 µM
[46] = second compound 3.16 µM, first compound 0.3 µM
[47] = second compound 10 µM, first compound 0.00949 µM
[48] = second compound 10 µM, first compound 0.03 µM
[49] = second compound 10 µM, first compound 0.0949 µM
[50] = second compound 10 µM, first compound 0.3 µM
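Note: spheroids exposed to the drugs for one week before the viability readout.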
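Throughout, for viability, T/C: 100% = DMSO vehicle control wells.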

C=CC(=O)N1CCN(c2nc(=O)n(-c3c(C)ccnc3C(C)C)c3nc(-c4c(O)cccc4F)c(F)cc23)C(C)C1 (stereo not given) + CC(C)NCC(C(=O)N1CCN(c2ncnc3c2C(C)CC3O)CC1)c1ccc(Cl)cc1
pIC50 (second compound 0.1 µM): < 5.00 | pIC50 (second compound 0.316 µM): 5.35 | pIC50 (second compound 1 µM): 6.63 | pIC50 (second compound 3.16 µM): 6.51 | pIC50 (second compound 10 µM): 5.43 | viability, T/C [1]: 96.1% | viability, T/C [2]: 91.6% | viability, T/C [3]: 86% | viability, T/C [4]: 92.2% | viability, T/C [5]: 104% | viability, T/C [6]: 77.3% | viability, T/C [7]: 81.1% | viability, T/C [8]: 75.3% | viability, T/C [9]: 70.9% | viability, T/C [10]: 67.2% | viability, T/C [11]: 56.6% | viability, T/C [12]: 36.6% | viability, T/C [13]: 53.6% | viability, T/C [14]: 55% | viability, T/C [15]: 48.2% | viability, T/C [16]: 41.8% | viability, T/C [17]: 34.7% | viability, T/C [18]: 18.8% | viability, T/C [19]: 55.7% | viability, T/C [20]: 52.4% | viability, T/C [21]: 49.1% | viability, T/C [22]: 43% | viability, T/C [23]: 36.8% | viability, T/C [24]: 17% | viability, T/C [25]: 53.4% | viability, T/C [26]: 69% | viability, T/C [27]: 65.8% | viability, T/C [28]: 57.3% | viability, T/C [29]: 56% | viability, T/C [30]: 18.4%

CC(=O)c1c(C)c2cnc(Nc3ccc(N4CCNCC4)cn3)nc2n(C2CCCC2)c1=O + CC(C)NCC(C(=O)N1CCN(c2ncnc3c2C(C)CC3O)CC1)c1ccc(Cl)cc1
pIC50 (second compound 0.1 µM): 7.16 | pIC50 (second compound 0.316 µM): 7.93 | pIC50 (second compound 1 µM): 8.58 | pIC50 (second compound 3.16 µM): 8.77 | pIC50 (second compound 10 µM): 8.55 | viability, T/C (second compound 0.1 µM, first compound 0.000949 µM): 90.5% | viability, T/C (second compound 0.1 µM, first compound 0.003 µM): 75% | viability, T/C [31]: 66.7% | viability, T/C [32]: 53.4% | viability, T/C [33]: 47.8% | viability, T/C [34]: 44.7% | viability, T/C (second compound 0.316 µM, first compound 0.000949 µM): 64.8% | viability, T/C (second compound 0.316 µM, first compound 0.003 µM): 62.6% | viability, T/C [35]: 51.2% | viability, T/C [36]: 41.5% | viability, T/C [37]: 31.4% | viability, T/C [38]: 34.1% | viability, T/C (second compound 1 µM, first compound 0.000949 µM): 56.9% | viability, T/C (second compound 1 µM, first compound 0.003 µM): 49.6% | viability, T/C [39]: 36.6% | viability, T/C [40]: 33.3% | viability, T/C [41]: 27.8% | viability, T/C [42]: 29.6% | viability, T/C (second compound 3.16 µM, first compound 0.000949 µM): 56.2% | viability, T/C (second compound 3.16 µM, first compound 0.003 µM): 45.1% | viability, T/C [43]: 31.6% | viability, T/C [44]: 34.4% | viability, T/C [45]: 23.5% | viability, T/C [46]: 20.8% | viability, T/C (second compound 10 µM, first compound 0.000949 µM): 61% | viability, T/C (second compound 10 µM, first compound 0.003 µM): 50.5% | viability, T/C [47]: 37.8% | viability, T/C [48]: 30.5% | viability, T/C [49]: 26.9% | viability, T/C [50]: 21%

CC(C)(C)c1cnc(CSc2cnc(NC(=O)C3CCNCC3)s2)o1 + CC(C)NCC(C(=O)N1CCN(c2ncnc3c2C(C)CC3O)CC1)c1ccc(Cl)cc1
pIC50 (second compound 0.1 µM): 6.66 | pIC50 (second compound 0.316 µM): 6.72 | pIC50 (second compound 1 µM): 6.86 | pIC50 (second compound 3.16 µM): 6.88 | pIC50 (second compound 10 µM): 6.80 | viability, T/C [31]: 101% | viability, T/C [32]: 122% | viability, T/C [33]: 146% | viability, T/C [34]: 22.2% | viability, T/C (second compound 0.1 µM, first compound 0.949 µM): 1.14% | viability, T/C (second compound 0.1 µM, first compound 3 µM): 1.67% | viability, T/C [35]: 92.5% | viability, T/C [36]: 94.2% | viability, T/C [37]: 113% | viability, T/C [38]: 16.5% | viability, T/C (second compound 0.316 µM, first compound 0.949 µM): 0.85% | viability, T/C (second compound 0.316 µM, first compound 3 µM): 1.58% | viability, T/C [39]: 67.7% | viability, T/C [40]: 70.7% | viability, T/C [41]: 75.6% | viability, T/C [42]: 4.32% | viability, T/C (second compound 1 µM, first compound 0.949 µM): 1.17% | viability, T/C (second compound 1 µM, first compound 3 µM): 1.18% | viability, T/C [43]: 60% | viability, T/C [44]: 68% | viability, T/C [45]: 81.9% | viability, T/C [46]: 1.46% | viability, T/C (second compound 3.16 µM, first compound 0.949 µM): 1.05% | viability, T/C (second compound 3.16 µM, first compound 3 µM): 1.4% | viability, T/C [47]: 75% | viability, T/C [48]: 83.4% | viability, T/C [49]: 108% | viability, T/C [50]: 0.9% | viability, T/C (second compound 10 µM, first compound 0.949 µM): 1.13% | viability, T/C (second compound 10 µM, first compound 3 µM): 1.37%

Cn1nccc1Nc1nccc(-c2ccn(C(CO)c3ccc(Cl)c(F)c3)c(=O)c2)n1 (stereo not given) + CC(C)NCC(C(=O)N1CCN(c2ncnc3c2C(C)CC3O)CC1)c1ccc(Cl)cc1
pIC50 (second compound 0.1 µM): 6.42 | pIC50 (second compound 0.316 µM): 7.06 | pIC50 (second compound 1 µM): 7.43 | pIC50 (second compound 3.16 µM): 7.33 | pIC50 (second compound 10 µM): 6.49 | viability, T/C [1]: 90.9% | viability, T/C [2]: 64.3% | viability, T/C [3]: 55.9% | viability, T/C [4]: 41.2% | viability, T/C [5]: 23.1% | viability, T/C [6]: 21.5% | viability, T/C [7]: 60.1% | viability, T/C [8]: 50% | viability, T/C [9]: 35.2% | viability, T/C [10]: 27.8% | viability, T/C [11]: 19.7% | viability, T/C [12]: 11.2% | viability, T/C [13]: 50.7% | viability, T/C [14]: 43.2% | viability, T/C [15]: 26.6% | viability, T/C [16]: 20.9% | viability, T/C [17]: 14% | viability, T/C [18]: 7.18% | viability, T/C [19]: 51.5% | viability, T/C [20]: 47.3% | viability, T/C [21]: 30.6% | viability, T/C [22]: 19.9% | viability, T/C [23]: 12.6% | viability, T/C [24]: 8.87% | viability, T/C [25]: 56.3% | viability, T/C [26]: 59.6% | viability, T/C [27]: 50.9% | viability, T/C [28]: 28.7% | viability, T/C [29]: 17.9% | viability, T/C [30]: 10.5%

Source: PubChem BioAssay AID2060337 (Molecular Pharmacology Branch, DTP, NCI, 2025)
